Assay [1] addresses T1, RORγt (Homo sapiens, UniProt P51449).
T1 sequence (P51449 1-497 isoform P51449-2): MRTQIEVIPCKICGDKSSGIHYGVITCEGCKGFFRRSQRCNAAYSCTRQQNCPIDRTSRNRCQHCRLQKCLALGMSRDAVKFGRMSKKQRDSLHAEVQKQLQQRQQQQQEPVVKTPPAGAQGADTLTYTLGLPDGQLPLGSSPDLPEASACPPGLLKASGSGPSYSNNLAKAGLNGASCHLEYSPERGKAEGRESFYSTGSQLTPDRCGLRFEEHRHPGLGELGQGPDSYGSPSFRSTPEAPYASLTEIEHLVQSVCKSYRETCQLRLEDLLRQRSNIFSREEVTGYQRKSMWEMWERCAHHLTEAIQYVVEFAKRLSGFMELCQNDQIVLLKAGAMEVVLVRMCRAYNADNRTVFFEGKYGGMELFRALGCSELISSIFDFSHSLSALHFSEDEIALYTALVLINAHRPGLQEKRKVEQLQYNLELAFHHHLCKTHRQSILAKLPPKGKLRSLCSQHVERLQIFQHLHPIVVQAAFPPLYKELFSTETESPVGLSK
Kind of assay: Cofactor recruitment test (Alpha Screen, biotinylated SRC-1 peptide). Conditions: read-out: signal value inhibitory rate (%) at test compound 1 μM. Format: biochemical. The procedure:
Cofactor Recruitment Test
Cofactor recruitment test was performed by Alpha Screen (Histidine Detection Kit, PerkinElmer) method. First, a test compound was diluted with an assay buffer (50 mM Tris-HCl (pH 7.5), 50 mM KCl, 1 mM DTT, 0.1% BSA) and added to a 384 well plate by 5 μL. […] The mixture was stood in a dark place for 1 hr, and the signal value was measured by Envision (PerkinElmer).

Assay [2] concerns the target T1, RORγt. The assay is described as follows: RORγt binding test (TR-FRET, fluorescent-labeled cholesterol). Conditions: read-out: binding inhibitory rate (%) of fluorescent-labeled cholesterol to RORγt at test compound 1 μM. The procedure:
The binding activity of the test compound to RORγt was measured by a time resolved fluorescence resonance energy transfer method (TR-FRET) utilizing histidine-tagged RORγt, fluorescent-labeled cholesterol (BODIPY-cholesterol, AVIVA), and terbium-labeled anti-histidine tag antibody (Invitrogen). First, a test compound diluted with an assay buffer (20 mM Tris-HCl (pH 7.5), 100 mM NaCl, 1 mM DTT, 0.1% BSA) was added to a 384 well plate by 3 μL. Then, RORγt diluted with an assay buffer to 240 nM was added by 3 μL, after which fluorescent-labeled cholesterol diluted with the assay buffer to 12 μM was added by 3 μL, and the mixture was stood at room temperature for 20 min. Thereafter, a terbium-labeled anti-histidine tag antibody diluted with the assay buffer to 8 nM was added by 3 μL. The mixture was stood at room temperature for 20 min, and fluorescence intensity (excitation wavelength 320 nm, fluorescence wavelength 520 nm, delay time 100 microseconds) was measured by Envision (PerkinElmer).

Assay [3] concerns the target T1, RORγt. Kind of assay: Jurkat reporter test (human IL-17 ROR response element luciferase reporter). Format: cell-based. The settings on record: Jurkat, read-out: luminescence level inhibitory rate (%) at test compound 3 μM. The procedure:
The Jurkat cells used for the reporter test were cultured in a culture medium (RPMI (Invitrogen), 10% FCS (AusGeneX), 100 U/mL penicillin, 100 μg/mL streptomycin). On the day of the test, 4×10^7 cells were recovered by a centrifugal operation (1000 rpm, 5 min.) and suspended in PBS (phosphate buffered saline) (Invitrogen). Thereafter, the cells were recovered again by a centrifugal operation, and suspended in 2 mL of R buffer (NEON transfection kit, Invitrogen). […] Gene transfer was performed by Electroporation apparatus (NEON, Invitrogen) under the conditions of pulse voltage 1350 V, interval 10 milliseconds, number of times 3. The cells after gene transfer were suspended in 40 mL of a reaction medium (RPMI, 10% Lipid reduced FCS (HyClone), 10 mM HEPES (pH 7.5), 100 U/mL penicillin, 100 μg/mL streptomycin, 5 μM lovastatin), and plated in a 96 well plate by 90 μL. A test compound diluted with the reaction medium was added by 10 μL, and the cells were cultured overnight in an incubator. Bright-Glo (Promega) was added by 100 μL, and the mixture was stirred at room temperature for 10 min, and the luminescence level was measured by Envision (PerkinElmer).
In general terms: Reporter assays use an easily measured gene product as a stand-in for the process of interest.

On to `COc1ccc(C(NC(=O)Cc2cc(C)no2)C(=O)Nc2ccc([Si](C)(C)C)cc2)cc1` (stereo not drawn) [Example 18, 2-(4-methoxyphenyl)-2-(((3-methyl-1,2-oxazol-5-yl)acetyl)amino)-N-(4-(trimethylsilyl)phenyl)acetamide], for which the inhibition at 1 µM on RORγt [1] stood at 60.3%; at RORγt [2], 101%. Besides, the inhibition at 3 µM at RORγt [3] was 90.9%.

For the compound `COc1ccc(C(NC(=O)Cc2ccn(C)n2)C(=O)Nc2ccc([Si](C)(C)C)cc2)cc1` (stereo not drawn) [Example 19, 2-(4-methoxyphenyl)-2-(((1-methyl-1H-pyrazol-3-yl)acetyl)amino)-N-(4-(trimethylsilyl)phenyl)acetamide], the inhibition at 1 µM was determined as 50.7% at RORγt [1] and 101% at RORγt [2]. At RORγt [3], the inhibition at 3 µM is 84.7%.

Take `COc1ccc(C(NC(=O)Cc2cnn(C)c2)C(=O)Nc2ccc([Si](C)(C)C)cc2)cc1` (stereo not drawn) [Example 20, 2-(4-methoxyphenyl)-2-(((1-methyl-1H-pyrazol-4-yl)acetyl)amino)-N-(4-(trimethylsilyl)phenyl)acetamide]: the inhibition at 1 µM was 73% on RORγt [1] and 101% on RORγt [2]. The inhibition at 3 µM at RORγt [3] was found to be 91.8%.

On to `COc1ccc(C(C(=O)Nc2cc(F)c([Si](C)(C)C)cc2F)N(C)C(=O)c2cc(O)no2)cc1` (stereo not drawn) [Example 21, N-(2-((2,5-difluoro-4-(trimethylsilyl)phenyl)amino)-1-(4-methoxyphenyl)-2-oxoethyl)-3-hydroxy-N-methyl-1,2-oxazole-5-carboxamide], for which the inhibition at 1 µM is 93.1% at RORγt [1] and 101% on RORγt [2]. Moreover, on RORγt [3], the inhibition at 3 µM was found to be 98.3%.

Consider `COCc1ccc(C(NC(=O)Cc2cnn(C)c2)C(=O)Nc2ccc([Si](C)(C)C)cc2)cc1` (stereo not drawn) [Example 22, 2-(4-(methoxymethyl)phenyl)-2-(((1-methyl-1H-pyrazol-4-yl)acetyl)amino)-N-(4-(trimethylsilyl)phenyl)acetamide], for which the inhibition at 1 µM at RORγt [1] turned out to be 90.6%; at RORγt [2], 101%. The inhibition at 3 µM on RORγt [3] stood at 97.2%.

Take `COc1ccc([C@H](C(=O)Nc2cc(F)c([Si](C)(C)C)cc2F)N(C)C(=O)c2cc(O)no2)cc1` [Example 25, N-((1R)-2-((2,5-difluoro-4-(trimethylsilyl)phenyl)amino)-1-(4-methoxyphenyl)-2-oxoethyl)-3-hydroxy-N-methyl-1,2-oxazole-5-carboxamide]: the inhibition at 1 µM on RORγt [1] is 95.7%; on RORγt [2] it was 102%. For the same compound, the inhibition at 3 µM on RORγt [3] was determined as 100%.

For `COCc1ccc(C(NC(=O)C2CNC(=O)C2)C(=O)Nc2ccc([Si](C)(C)C)c(C#N)c2)cc1` (stereo not drawn) [Example 26, N-(2-((3-cyano-4-(trimethylsilyl)phenyl)amino)-1-(4-(methoxymethyl)phenyl)-2-oxoethyl)-5-oxopyrrolidine-3-carboxamide], the inhibition at 1 µM at RORγt [1] is 99.5%; at RORγt [2], 103%. Further, the inhibition at 3 µM on RORγt [3] worked out at 97.6%.

`COc1ccc(C(NC(=O)C2CNC(=O)C2)C(=O)Nc2ccc([Si](C)(C)C)c(C#N)c2)cc1` (stereo not drawn) [Example 27, N-(2-((3-cyano-4-(trimethylsilyl)phenyl)amino)-1-(4-methoxyphenyl)-2-oxoethyl)-5-oxopyrrolidine-3-carboxamide]: the inhibition at 1 µM was found to be 92.5% at RORγt [1] and 103% on RORγt [2]. Further, on RORγt [3], the inhibition at 3 µM turned out to be 96%.

With `COc1ccc(C(NC(=O)C2CNC(=O)C2)C(=O)Nc2ccc([Si](C)(C)C)c(F)c2)cc1` (stereo not drawn) [Example 28, N-(2-((3-fluoro-4-(trimethylsilyl)phenyl)amino)-1-(4-methoxyphenyl)-2-oxoethyl)-5-oxopyrrolidine-3-carboxamide], the inhibition at 1 µM turned out to be 88% on RORγt [1] and 100% at RORγt [2]. For the same compound, the inhibition at 3 µM at RORγt [3] was found to be 98%.

`COc1ccc(C(NC(=O)N2CCC(O)C2)C(=O)Nc2ccc([Si](C)(C)C)c(F)c2)cc1` (stereo not drawn) [Example 29, N-(2-((3-fluoro-4-(trimethylsilyl)phenyl)amino)-1-(4-methoxyphenyl)-2-oxoethyl)-3-hydroxypyrrolidine-1-carboxamide]: the inhibition at 1 µM on RORγt [1] was determined as 92.3%; at RORγt [2], 101%. Moreover, the inhibition at 3 µM at RORγt [3] was found to be 99.2%.

In the case of `COc1ccc(C(NC(=O)N2CC(O)C2)C(=O)Nc2ccc([Si](C)(C)C)c(F)c2)cc1` (stereo not drawn) [Example 30, N-(2-((3-fluoro-4-(trimethylsilyl)phenyl)amino)-1-(4-methoxyphenyl)-2-oxoethyl)-3-hydroxyazetidine-1-carboxamide], the inhibition at 1 µM was 95.1% on RORγt [1] and 98.5% at RORγt [2]. Besides, the inhibition at 3 µM on RORγt [3] is 99.8%.

In the case of `COCc1ccc(C(C(=O)Nc2ccc([Si](C)(C)C)c(F)c2)N(C)C(=O)c2cc(O)no2)cc1` (stereo not drawn) [Example 31, N-(2-((3-fluoro-4-(trimethylsilyl)phenyl)amino)-1-(4-(methoxymethyl)phenyl)-2-oxoethyl)-3-hydroxy-N-methyl-1,2-oxazole-5-carboxamide], the results for the inhibition at 1 µM on RORγt [1] and on RORγt [2] were 98.3% and 99.5%, respectively. In addition, on RORγt [3], the inhibition at 3 µM stood at 99.5%.

For the compound `COCc1ccc(C(NC(=O)C2CNC(=O)C2)C(=O)Nc2ccc([Si](C)(C)C)c(F)c2)cc1` (stereo not drawn) [Example 32, N-(2-((3-fluoro-4-(trimethylsilyl)phenyl)amino)-1-(4-(methoxymethyl)phenyl)-2-oxoethyl)-5-oxopyrrolidine-3-carboxamide], the inhibition at 1 µM on RORγt [1] was 95.6%; at RORγt [2] it was 95.2%. In addition, the inhibition at 3 µM at RORγt [3] was 99.1%.

On to `COCc1ccc(C(NC(=O)N2CCC(O)C2)C(=O)Nc2ccc([Si](C)(C)C)c(F)c2)cc1` (stereo not drawn) [Example 33, N-(2-((3-fluoro-4-(trimethylsilyl)phenyl)amino)-1-(4-(methoxymethyl)phenyl)-2-oxoethyl)-3-hydroxypyrrolidine-1-carboxamide], for which the inhibition at 1 µM on RORγt [1] came out at 97.7%; on RORγt [2], 101%. Further, the inhibition at 3 µM at RORγt [3] came to 98.4%.

Consider `COCc1ccc(C(NC(=O)N2CC(O)C2)C(=O)Nc2ccc([Si](C)(C)C)c(F)c2)cc1` (stereo not drawn) [Example 34, N-(2-((3-fluoro-4-(trimethylsilyl)phenyl)amino)-1-(4-(methoxymethyl)phenyl)-2-oxoethyl)-3-hydroxyazetidine-1-carboxamide], for which the inhibition at 1 µM was found to be 98.9% at RORγt [1] and 101% at RORγt [2]. Further, at RORγt [3], the inhibition at 3 µM worked out at 99.2%.

With `COCc1ccc(C(NC(=O)Cc2nnc(C)o2)C(=O)Nc2ccc([Si](C)(C)C)c(F)c2)cc1` (stereo not drawn) [Example 35, N-(3-fluoro-4-(trimethylsilyl)phenyl)-2-(4-(methoxymethyl)phenyl)-2-(((5-methyl-1,3,4-oxadiazol-2-yl)acetyl)amino)acetamide], the inhibition at 1 µM at RORγt [1] turned out to be 96.6%; on RORγt [2] it was 103%. The inhibition at 3 µM on RORγt [3] worked out at 101%.

As for `COCc1ccc(C(NC(=O)Cn2cnccc2=O)C(=O)Nc2ccc([Si](C)(C)C)c(F)c2)cc1` (stereo not drawn) [Example 36, N-(3-fluoro-4-(trimethylsilyl)phenyl)-2-(4-(methoxymethyl)phenyl)-2-(((6-oxopyrimidin-1(6H)-yl)acetyl)amino)acetamide], the inhibition at 1 µM on RORγt [1] was 98.2%; at RORγt [2], 96.2%. In addition, the inhibition at 3 µM at RORγt [3] stood at 99.8%.

The values above are taken from US11851449B2, “Heterocyclic amide compounds having an RORvt inhibitory action” (TAKEDA PHARMACEUTICAL COMPANY LIMITED, priority 2013, dated 2023).
